From patent US5643926A, “Pyrazolidinone CCK and gastrin antagonists and pharmaceutical formulations thereof” (priority 1994, dated 1997)

What was measured:
[1] = molecular target: T1, CCK receptor, mouse brain membranes (Mus musculus, UniProt P56481); assay: Brain CCK receptor binding (displacement of 125I-CCK-8 sulfate, mouse brain membranes)
T1 construct: from tissue; host or cells: forebrain membranes of male CF-1 mice
T1 sequence (P56481 1-453): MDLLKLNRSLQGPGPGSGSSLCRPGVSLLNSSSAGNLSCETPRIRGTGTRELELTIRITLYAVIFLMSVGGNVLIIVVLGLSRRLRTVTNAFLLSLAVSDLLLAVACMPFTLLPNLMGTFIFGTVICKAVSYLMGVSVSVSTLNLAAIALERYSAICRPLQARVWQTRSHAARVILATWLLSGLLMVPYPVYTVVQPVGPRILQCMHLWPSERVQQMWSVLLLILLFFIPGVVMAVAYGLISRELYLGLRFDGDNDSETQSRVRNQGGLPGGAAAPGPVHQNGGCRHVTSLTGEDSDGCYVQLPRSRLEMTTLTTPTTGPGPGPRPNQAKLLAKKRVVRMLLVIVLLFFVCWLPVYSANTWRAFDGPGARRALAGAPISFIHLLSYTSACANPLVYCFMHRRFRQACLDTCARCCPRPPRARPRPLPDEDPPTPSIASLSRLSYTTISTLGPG
Procedure: (§1) Test Procedures for CCK and Gastrin Receptor Binding (IC50)
Brain CCK receptor binding was performed using mouse brain membranes according to the method of Chang and Lotti (Proc. Natl. Acad. Sci. 83: 4923-4926, 1986). Male CF-1 mice, 23-25 g were sacrificed by cervical dislocation, the forebrain removed and placed in ice cold 50 mM Tris buffer, pH 7.4. The tissue was homogenized in 100 volumes of the Tris buffer with a Brinkman Polytron or Tekmar Tissumizer and then centrifuged at 40,000 g for 10 min. Pellets were resuspended in Tris buffer, centrifuged as above and then resuspended in 100 volumes of assay buffer, pH 6.5 (20 mM N-2-hydroxyethyl-piperazine-N'-2-ethane sulfonic acid (HEPES), 1 mM ethylene glycol bis(2-aminoethyl ether-N,N,N',N'-tetraaceticacid) (EGTA), 5 mM MgCl2, 130 mM NaCl, and 0.25 mg/ml bacitracin). The binding assay consisted of 50 μL of compound (or buffer for total binding), 50 μL of ^125 I-CCK-8 sulfate (20 pM) (Amersham IM-159), 200 μL of assay buffer and 200 μL of homogenate (80-120 μg protein). The samples were incubated at room temperature (25°) for 2 hours, and they were then filtered through GF/B glass fiber filters (soaked in wash buffer for 2 hours before use) using a 48 well Brandel cell harvester designed for receptor binding. The filters were washed twice with 3 ml of 50 mM Tris buffer, pH 7.4, containing 0.01% BSA and then counted for radioactivity in plastic tubes with a Micromedic 10/600 automatic gamma counter.
Compounds were dissolved in dimethyl sulfoxide (DMSO) at a concentration of 10 mM and then further diluted with assay buffer. The concentration of DMSO in the incubation was 0.1% or less and had no effect on the assay at that level. IC-50 values of displacement curves were determined using 7 concentrations of compound and were calculated using the ALLFIT computer program of DeLean, Munson and Rodbard (Am. J. Physiol. 235: E97-E102, 1978). Non-specific binding was determined as the displacement of the radioligand by 100 nM CCK-8 sulfate.
Table III below summarizes representative CCK and gastrin-binding tests results for exemplified compounds in accordance with this invention.

[2] = Titration pKa; assay type: physicochemical; conditions: 2:1 DMF:H2O as solvent
Excerpt: Tetrahydrofuran (THF) was dried by distillation from sodium/benzophenone.

[3] = molecular target: T2, peripheral type CCK receptors in rat pancreas (Rattus norvegicus, UniProt P30551); assay: Binding to peripheral type CCK receptors in rat pancreas (displacement of 3H-L-364,718); conditions: read-out: Pancreas CCK receptor binding, Percent Inhibition at 10 μM
T2 construct: Pancreas was obtained from male Sprague-Dawley rats; from tissue; host or cells: pancreas membranes of male Sprague-Dawley rats
T2 sequence (P30551 1-444): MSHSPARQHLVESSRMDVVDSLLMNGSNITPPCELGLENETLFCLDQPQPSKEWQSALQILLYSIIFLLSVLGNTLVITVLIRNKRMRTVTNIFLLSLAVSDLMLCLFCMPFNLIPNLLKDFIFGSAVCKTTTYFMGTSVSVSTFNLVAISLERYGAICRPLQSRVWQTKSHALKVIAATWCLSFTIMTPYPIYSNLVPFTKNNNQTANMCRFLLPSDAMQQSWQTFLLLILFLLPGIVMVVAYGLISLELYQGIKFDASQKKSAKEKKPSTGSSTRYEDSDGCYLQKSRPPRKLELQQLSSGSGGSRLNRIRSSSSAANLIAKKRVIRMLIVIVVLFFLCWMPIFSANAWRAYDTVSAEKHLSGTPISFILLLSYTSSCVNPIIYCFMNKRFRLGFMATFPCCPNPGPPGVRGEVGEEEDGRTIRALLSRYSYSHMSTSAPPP
Procedure: as §1
Binding to peripheral type CCK receptors in rat pancreas was done according to the method of Chang et al. (Mol. Pharmacol. 30: 212-217, 1986) using ^3 H-L364, 718. Pancreas was obtained from male Sprague-Dawley rats, 150-200 g, after decapitation, and dissected free from adipose and connective tissue. The tissue was homogenized in 30 volumes of 50 mM Tris buffer, pH 7.4 and centrifuged at 40,000 g for 10 min. The tissue pellet was washed by resuspension and centrifugation as described above. The final pellet was suspended in 500 volumes of assay buffer (50 mM Tris buffer, pH 7.4, 5 mM MgCl2, 0.14 mg/ml bacitracin, and 5 mM dithiothreitol) to give a protein concentration of 30-60 μg/200 μl . Reagent volumes for the assay were the same as those used for CCK binding to brain membranes. Tritium labeled L-364,718 (Dupont NEN, NET-971) was used as the ligand at a concentration of 0.4-0.6 nM. The samples were incubated 1 hour at room temperature and then filtered as described for the CCK-brain receptor. Scintillation cocktail was added to the filters which were counted for radioactivity using a Micromedic Taurus automatic liquid scintillation counter.
Compound samples were prepared and IC-50 values were determined as described for the CCK-brain experiments. […]

[4] = molecular target: T3, gastrin receptor, guinea pig stomach mucosal membranes (Cavia porcellus, UniProt H0VZC5); assay: Gastrin binding to guinea pig stomach mucosal membranes (displacement of 125I-gastrin I); conditions: guinea pig gastric mucosa
T3 construct: Guinea pig stomach fundus was obtained from male Hartley guinea pigs; from tissue; host or cells: stomach fundus mucosal membranes of male Hartley guinea pigs
T3 sequence (H0VZC5 1-426): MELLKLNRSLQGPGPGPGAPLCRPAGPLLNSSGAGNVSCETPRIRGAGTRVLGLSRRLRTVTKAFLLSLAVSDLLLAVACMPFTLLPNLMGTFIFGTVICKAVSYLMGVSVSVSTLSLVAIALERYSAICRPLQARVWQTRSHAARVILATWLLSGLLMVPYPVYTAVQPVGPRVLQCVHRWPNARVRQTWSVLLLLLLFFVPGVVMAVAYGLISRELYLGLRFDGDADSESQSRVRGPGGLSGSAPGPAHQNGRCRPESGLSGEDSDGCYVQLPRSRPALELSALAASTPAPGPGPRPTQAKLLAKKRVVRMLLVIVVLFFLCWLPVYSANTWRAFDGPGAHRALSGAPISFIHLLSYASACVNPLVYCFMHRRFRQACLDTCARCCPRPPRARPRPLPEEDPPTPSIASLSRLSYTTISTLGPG
Procedure: as §1
The method used for gastrin binding to guinea pig stomach mucosal membranes was similar to that described by Takeuchi, Speir and Johnson (Am. J. Physiol. 237(3): E284-E294, 1979). Guinea pig stomach fundus was obtained from male Hartley guinea pigs, 300-350 g, and the mucosa was scraped off with a glass slide. The mucosa was homogenized in 50 mM Tris buffer, pH 7.4, containing 1 mM phenylmethanesulfonyl fluoride using a Dounce glass homogenizer, and the suspension was centrifuged at 40,000 g for 10 min. The resulting pellet was resuspended and centrifuged once more, the final pellet was then suspended in 100 ml assay buffer per 1 guinea pig stomach to give a protein concentration of 200-300 μg/200 μl. The assay buffer consisted of 50 mM Tris buffer, pH 7.4, 5 mM MgCl2, 0.14 mg/ml bacitracin, and 1 μg/ml each of leupeptin, chymostatin, aprotinin and pepstatin. Reagent volumes for the assay were the same as those used for CCK binding to brain membranes. […] The samples were incubated 3 hours at room temperature and filtered and counted as described for CCK binding to brain membranes. Compound samples were prepared and IC-50 values were determined as described for the CCK-brain receptor binding. Non-specific binding was determined using 100 nM gastrin I (human synthetic from Sigma Chemical Co.). […]

1-[(4-Bromophenyl)aminocarbonyl]-2-(O-t-butyl-carboxymethyl)-4,5-diphenyl-3-pyrazolidinone and 1-[(4-bromophenyl)aminocarbonyl]-3-(O-t-butylcarboxymethoxy)-4,5-diphenyl- 2-pyrazoline [Example 11]
Brain CCK receptor binding, Percent Inhibition at 10 μM ([1]; at 10 μM): 67%

1-[(4-Bromophenyl)aminocarbonyl]-2-carboxymethyl-4,5-diphenyl-3-pyrazolidinone and 1-[(4-bromophenyl)aminocarbonyl]-3-carboxymethoxy-4,5-diphenyl-2-pyrazoline [Example 12]
titration pKa [2]: 4.8

O=C(O)CN1C(=O)[C@H](c2ccccc2)[C@@H](c2ccccc2)N1C(=O)Nc1ccc(Br)cc1 (relative stereo) [Example 12 (N-), 1-[(4-Bromophenyl)aminocarbonyl]-2-carboxymethyl-4,5-diphenyl-3-pyrazolidinone]
IC50 [1]: 1 µM

O=C1NN(C(=O)Cc2ccc(C(F)(F)F)cc2)[C@@H](c2ccccc2)[C@@H]1c1ccccc1 (relative stereo) [Example 77]
inhibition at 10 µM [3]: 4%

O=C1NN(c2nc3c(Cl)c(Cl)ccc3s2)[C@@H](c2ccccc2)[C@@H]1c1ccccc1 (relative stereo) [Example 86]
IC50 [1]: 1.1 µM

O=C1NN(C(=O)Nc2ccc3ccccc3c2)[C@@H](c2ccccc2)[C@@H]1c1ccccc1 (relative stereo) [Example 91]
IC50 [4]: 0.062 µM
IC50 [1]: 0.01 µM

O=C1NN(C(=O)Nc2ccc(C(F)(F)F)cc2)C(c2ccccc2Cl)C1c1ccccc1 (centres unmarked) [Example 110]
inhibition at 10 µM [3]: 47%
